Values joined by “and” are separate entries in the source; they are usually repeats but may differ in a detail not shown here. Identical values can stand only once. Active and inactive are the calls of the source. The calls are words filed in the database; no cut-off is given here.
Tests used:
ATH-8 cell line [1] = test: Compound was tested for % Protection of ATH8 cells from HIV infection by 2 pM concentration of nucleoside; format: functional, Homo sapiens
MT4 = test: Tested for 50% protection of MT-4 cells from HIV infection; format: functional
ATH-8 cell line [2] = test: Compound was tested for % Protection of ATH8 cells from HIV infection by 2 pM concentration of nucleoside; inactive; format: functional, cell-based; details: Homo sapiens

Compound | Log 1/C (MT4) | other results
Nc1nc(Cl)nc2c1ncn2C1CCC(CO)O1 (stereo unspecified) | – | Log (ATH-8 cell line [1]): 0%
Cc1cccc(Sc2c(C)c(=O)[nH]c(=O)n2COCCO)c1 | 5.59 | –
CCc1c(Sc2ccccc2)n(COCCO)c(=O)[nH]c1=O | 6.92 and 6.96 | –
Cc1c(Sc2cccc(C#N)c2)n(COCCO)c(=O)[nH]c1=O | 5 | –
CCc1c(Sc2cc(Cl)cc(Cl)c2)n(COCCO)c(=O)[nH]c1=O | 7.85 | –
COc1ccccc1Sc1c(C)c(=O)[nH]c(=O)n1COCCO | 4.72 | –
COCc1cccc(Sc2c(C)c(=O)[nH]c(=O)n2COCCO)c1 | 5.14 | –
OCC1CCC(n2cnc3c(S)ncnc32)O1 (stereo unspecified) | – | Log (ATH-8 cell line [2]): inactive
CC(C)c1c(Sc2ccccc2)n(COCCO)c(=O)[nH]c1=O | 7.2 | –
CCc1c(Sc2cc(Cl)cc(Cl)c2)n(COCCO)c(=S)[nH]c1=O | 7.37 | –
Cc1ccccc1Sc1c(C)c(=O)[nH]c(=O)n1COCCO | 4.15 | –
CCCc1c(Sc2ccccc2)n(COCCO)c(=S)[nH]c1=O | 5 | –
Cc1c(Sc2cccc(F)c2)n(COCCO)c(=O)[nH]c1=O | 5.48 | –
Cc1ccc(Sc2c(C)c(=O)[nH]c(=O)n2COCCO)cc1 | 3.66 | –
Cc1c(Sc2cccc(C(F)(F)F)c2)n(COCCO)c(=O)[nH]c1=O | 4.35 | –
Cc1c(Sc2cccc(I)c2)n(COCCO)c(=O)[nH]c1=O | 5 | –

Compound | Log 1/C (MT4) | other results
CCCc1c(Sc2ccccc2)n(COCCO)c(=O)[nH]c1=O | 5.47 | –
CCc1c(Sc2cc(C)cc(C)c2)n(COCCO)c(=S)[nH]c1=O | 8.11 | –
Cc1cc(C)cc(Sc2c(C(C)C)c(=O)[nH]c(=S)n2COCCO)c1 | 8.3 | –
C=CCc1c(Sc2ccccc2)n(COCCO)c(=O)[nH]c1=O | 5.6 | –
Cc1c(Sc2cccc(C(C)(C)C)c2)n(COCCO)c(=O)[nH]c1=O | 4.92 | –
Cc1c(Sc2ccccc2[N+](=O)[O-])n(COCCO)c(=O)[nH]c1=O | 3.85 | –
COC(=O)c1cccc(Sc2c(C)c(=O)[nH]c(=O)n2COCCO)c1 | 5.1 | –
Cc1c(Sc2cccc([N+](=O)[O-])c2)n(COCCO)c(=O)[nH]c1=O | 4.47 | –
Cc1c(Sc2cccc(Cl)c2)n(COCCO)c(=O)[nH]c1=O | 4.89 | –
Cc1c(Sc2cccc(Br)c2)n(COCCO)c(=O)[nH]c1=O | 5.24 | –
Cc1cc(C)cc(Sc2c(C)c(=O)[nH]c(=S)n2COCCO)c1 | 6.66 | –
CCc1cccc(Sc2c(C)c(=O)[nH]c(=O)n2COCCO)c1 | 5.57 | –
Cc1c(Sc2cccc(O)c2)n(COCCO)c(=O)[nH]c1=O | 4.09 | –
COc1cccc(Sc2c(C)c(=O)[nH]c(=O)n2COCCO)c1 | 4.66 | –
CC(C)c1c(Sc2ccccc2)n(COCCO)c(=S)[nH]c1=O | 7.23 | –
